From patent publication US7081460B2, “Quinazoline and quinazoline-like compounds for the treatment of integrin-mediated disorders” (Ortho-McNeil Pharmaceutical, Inc., priority 2001, dated 2006)
Counter-ions that a name gives are not always drawn.

Tests used:
Human αvβ3 = target: T1, Human αvβ3 (Homo sapiens, UniProt P05106+P06756); assay: In vitro solid phase purified αvβ3 binding assay (vitronectin/αvβ3); details: isolated human αvβ3, 5 nM vitronectin; read-out: αvβ3 Binding IC50
T1 construct: purchased Chemicon International Inc., Temecula, Calif
T1 sequence (P06756 31-889 limits assumed): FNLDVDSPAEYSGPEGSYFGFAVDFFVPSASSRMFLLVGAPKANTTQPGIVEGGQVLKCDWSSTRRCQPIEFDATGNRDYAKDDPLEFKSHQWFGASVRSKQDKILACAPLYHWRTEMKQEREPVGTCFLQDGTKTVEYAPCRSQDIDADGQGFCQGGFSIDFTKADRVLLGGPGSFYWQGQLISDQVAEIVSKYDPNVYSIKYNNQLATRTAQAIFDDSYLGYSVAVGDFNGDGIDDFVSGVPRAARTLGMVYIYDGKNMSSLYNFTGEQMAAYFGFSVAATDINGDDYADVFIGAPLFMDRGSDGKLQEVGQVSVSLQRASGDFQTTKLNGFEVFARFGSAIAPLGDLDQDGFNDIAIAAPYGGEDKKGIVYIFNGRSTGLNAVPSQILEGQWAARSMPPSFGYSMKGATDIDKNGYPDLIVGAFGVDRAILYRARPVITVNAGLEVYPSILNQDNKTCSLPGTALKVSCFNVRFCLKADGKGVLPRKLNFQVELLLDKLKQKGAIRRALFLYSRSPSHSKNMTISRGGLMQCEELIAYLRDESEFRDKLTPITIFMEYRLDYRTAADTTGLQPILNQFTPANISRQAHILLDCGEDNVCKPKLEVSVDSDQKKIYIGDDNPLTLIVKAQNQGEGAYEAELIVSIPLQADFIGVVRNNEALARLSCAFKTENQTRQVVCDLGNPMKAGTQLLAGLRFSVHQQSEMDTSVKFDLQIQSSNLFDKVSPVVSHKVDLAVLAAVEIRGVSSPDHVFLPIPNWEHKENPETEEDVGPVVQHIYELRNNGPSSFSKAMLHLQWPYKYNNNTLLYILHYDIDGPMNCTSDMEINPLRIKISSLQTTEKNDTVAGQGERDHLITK
T1 sequence (P06756 891-1048 partner limits assumed): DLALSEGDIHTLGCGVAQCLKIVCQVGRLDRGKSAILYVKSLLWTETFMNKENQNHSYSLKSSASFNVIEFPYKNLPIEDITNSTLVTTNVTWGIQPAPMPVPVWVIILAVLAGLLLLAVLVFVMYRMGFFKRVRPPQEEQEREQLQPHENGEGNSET
T1 sequence (P05106 27-788): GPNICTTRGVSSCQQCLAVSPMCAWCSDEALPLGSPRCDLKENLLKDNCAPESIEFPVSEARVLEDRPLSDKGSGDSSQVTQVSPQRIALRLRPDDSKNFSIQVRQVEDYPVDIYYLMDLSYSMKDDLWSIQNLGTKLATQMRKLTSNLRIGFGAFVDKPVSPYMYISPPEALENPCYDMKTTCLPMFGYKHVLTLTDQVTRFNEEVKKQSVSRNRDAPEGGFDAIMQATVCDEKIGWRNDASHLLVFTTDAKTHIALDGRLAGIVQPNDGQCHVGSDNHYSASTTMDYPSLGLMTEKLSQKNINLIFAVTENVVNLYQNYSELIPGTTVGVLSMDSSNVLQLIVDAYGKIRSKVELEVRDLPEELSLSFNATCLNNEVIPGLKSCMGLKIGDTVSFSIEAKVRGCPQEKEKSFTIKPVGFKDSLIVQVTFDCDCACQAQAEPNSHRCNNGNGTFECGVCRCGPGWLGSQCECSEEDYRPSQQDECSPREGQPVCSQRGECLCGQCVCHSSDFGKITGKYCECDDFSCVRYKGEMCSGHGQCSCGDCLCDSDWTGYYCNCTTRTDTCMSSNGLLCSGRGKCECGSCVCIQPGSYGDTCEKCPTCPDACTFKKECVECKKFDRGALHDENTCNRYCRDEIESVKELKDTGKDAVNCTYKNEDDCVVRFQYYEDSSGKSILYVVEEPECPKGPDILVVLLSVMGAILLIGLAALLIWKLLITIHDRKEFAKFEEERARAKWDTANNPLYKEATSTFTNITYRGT
How it was run: (§1)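 αvβ3 (1 μg/ml) immobilised in Tris buffer with Ca2+/Mg2+/Mn2+, compounds added 5 min before 5 nM vitronectin, 3 h at 37 °C; bound vitronectin detected by anti-vitronectin antibody/peroxidase ELISA at 490 nm. GPIIb/IIIa coated overnight at 4 °C, biotinylated fibrinogen with compounds 2–4 h RT in modified Tyrodes buffer, avidin-HRP/o-phenylenediamine read at 490 nm.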

GPIIb/IIIa = GPIIb/IIIa (Homo sapiens, UniProt P05106+P08514); assay: In vitro solid phase purified glycoprotein IIb/IIIa binding assay (biotinylated fibrinogen); details: RGD-affinity purified GPIIb/IIIa, biotinylated fibrinogen; read-out: GPIIb/IIIa Binding IC50
GPIIb/IIIa, sequence (P08514 32-887 limits assumed): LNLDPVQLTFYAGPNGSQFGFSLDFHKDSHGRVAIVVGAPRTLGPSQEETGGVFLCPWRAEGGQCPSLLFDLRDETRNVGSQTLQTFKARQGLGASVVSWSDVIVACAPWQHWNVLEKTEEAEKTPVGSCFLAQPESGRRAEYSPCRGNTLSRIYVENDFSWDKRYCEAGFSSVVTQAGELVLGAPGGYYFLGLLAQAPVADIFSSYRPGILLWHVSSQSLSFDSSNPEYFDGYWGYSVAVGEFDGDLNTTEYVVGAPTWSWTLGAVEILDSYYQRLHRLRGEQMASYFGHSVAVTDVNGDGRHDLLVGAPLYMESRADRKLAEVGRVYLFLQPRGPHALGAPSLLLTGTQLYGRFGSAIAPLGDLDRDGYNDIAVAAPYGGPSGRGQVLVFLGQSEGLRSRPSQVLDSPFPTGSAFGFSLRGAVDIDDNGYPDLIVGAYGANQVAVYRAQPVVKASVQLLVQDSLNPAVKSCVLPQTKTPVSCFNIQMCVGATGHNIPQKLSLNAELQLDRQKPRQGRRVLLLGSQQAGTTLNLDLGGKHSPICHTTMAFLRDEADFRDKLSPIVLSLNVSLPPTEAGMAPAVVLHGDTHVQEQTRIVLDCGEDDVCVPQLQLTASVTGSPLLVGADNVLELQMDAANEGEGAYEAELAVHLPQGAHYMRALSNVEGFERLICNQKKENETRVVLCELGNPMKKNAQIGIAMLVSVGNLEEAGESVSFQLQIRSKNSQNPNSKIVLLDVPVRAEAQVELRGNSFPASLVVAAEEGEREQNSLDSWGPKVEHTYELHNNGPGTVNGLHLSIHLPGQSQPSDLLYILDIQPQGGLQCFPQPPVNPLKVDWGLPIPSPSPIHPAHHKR
GPIIb/IIIa, sequence (P08514 891-1039 partner limits assumed): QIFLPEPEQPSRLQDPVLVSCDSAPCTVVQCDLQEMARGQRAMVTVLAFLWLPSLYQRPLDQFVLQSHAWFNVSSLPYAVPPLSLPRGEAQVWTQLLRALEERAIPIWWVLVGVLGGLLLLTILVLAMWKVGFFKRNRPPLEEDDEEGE
GPIIb/IIIa, sequence (P05106 27-788): as the sequence (P05106 27-788) above
How it was run: as §1

Molecule | melting point [°C] | IC50 (Human αvβ3) [nM] | IC50 (GPIIb/IIIa) [nM]
Cc1c(C)c(C)c(S(=O)(=O)N[C@@H](Cc2nc3ccc(CCCNc4ccccn4)cc3c(=O)[nH]2)C(=O)O)c(C)c1C (as salt: HCl) [Compound 11, (αS)-3,4-dihydro-4-oxo-α-[[(2,3,4,5,6-pentamethylphenyl)sulfonyl]amino]-6-[3-(2-pyridinylamino)propyl]-2-quinazolinepropanoic Acid] | 218 to 221 |  | 
O=C(N[C@@H](Cc1nc2ccc(/C=C/CCNC3=NCCN3)cc2c(=O)[nH]1)C(=O)O)OCc1ccccc1 [Compound 8, 6-[(1E)-4-[(4,5-dihydro-1H-imidazol-2-yl)amino]-1-butenyl]-(αS)-3,4-dihydro-4-oxo-α-[[(phenylmethoxy)carbonyl]amino]-2-quinazolinepropanoic Acid] |  | 210 | 580
COC(=O)[C@H](Cc1nc2ccc(/C=C/CNC3=NCCN3)cc2c(=O)[nH]1)NS(=O)(=O)c1c(C)c(C)c(C)c(C)c1C [Compound 41, 6-[(1E)-3-[(4,5-dihydro-1H-imidazol-2-yl)amino]-1-propenyl]-(αS)-3,4-dihydro-4-oxo-α-[[(2,3,4,5,6-pentamethylphenyl)sulfonyl]amino]methyl ester 2-quinazolinepropanoic acid] |  | 19 | 240
Cc1ccc(NC/C=C/c2ccc3nc(C[C@H](NS(=O)(=O)c4c(C)c(C)c(C)c(C)c4C)C(=O)O)[nH]c(=O)c3c2)nc1 [Compound 43, (αS)-3,4-dihydro-6-[(1E)-3-[(5-methyl-2-pyridinyl)amino]-1-propenyl]-4-oxo-α-[[(2,3,4,5,6-pentamethylphenyl)sulfonyl]amino]-2-quinazolinepropanoic acid] |  | 22 | 880
O=C(O)[C@H](Cc1nc2ccc(/C=C/CNC3=NCCN3)cc2c(=O)[nH]1)NS(=O)(=O)c1c(Cl)cc(Cl)cc1Cl [Compound 21, 6-[(1E)-3-[(4,5-dihydro-1H-imidazol-2-yl)amino]-1-propenyl]-(αS)-3,4-dihydro-4-oxo-α-[[(2,4,6-trichlorophenyl)sulfonyl]amino]-2-quinazolinepropanoic acid] |  | > 50 | 1600
Cc1c(C)c(C)c(S(=O)(=O)N[C@@H](Cc2nc3ccc(/C=C/CCNC4=NCCN4)cc3c(=O)[nH]2)C(=O)O)c(C)c1C [Compound 42, 6-[(1E)-4-[(4,5-dihydro-1H-imidazol-2-yl)amino]-1-butenyl]-(αS)-3,4-dihydro-4-oxo-α-[[(2,3,4,5,6-pentamethylphenyl)sulfonyl]amino]-2-quinazolinepropanoic acid] |  | 5.4 | 60
COc1ccc(OC)c(S(=O)(=O)N[C@@H](Cc2nc3ccc(/C=C/CNc4ccccn4)cc3c(=O)[nH]2)C(=O)O)c1 [Compound 32, α-[[(2,5-dimethoxyphenyl)sulfonyl]amino]-(αS)-3,4-dihydro-4-oxo-6-[(1E)-3-(2-pyridinylamino)-1-propenyl]-2-quinazolinepropanoic acid] |  | 21 | 3900
O=C(Nc1ccccc1)N[C@@H](Cc1nc2ccc(/C=C/CNc3ccccn3)cc2c(=O)[nH]1)C(=O)O [Compound 12, (αS)-3,4-dihydro-4-oxo-α-[[(phenylamino)carbonyl]amino]-6-[(E)-3-(2-pyridinylamino)-1-propenyl]-2-quinazolinepropanoic Acid] |  | > 500 | 18000
6-[(1E)-3-[(4,5-dihydro-1H-imidazol-2-yl)amino]-1-propenyl]-(αS)-3,4-dihydro-4-oxo-α-[[[(E)-2-phenylethenyl]sulfonyl]amino]-2-quinazolinepropanoic Acid [Compound 7] |  | 7 | 330
O=C(N[C@@H](Cc1nc2ccc(-c3cccc(NC4=NCCN4)c3)cc2c(=O)[nH]1)C(=O)O)OCc1ccccc1 [Compound 9, 6-[3-[(4,5-dihydro-1H-imidazol-2-yl)amino]phenyl]-(αS)-3,4-dihydro-4-oxo-α-[[(phenylmethoxy)carbonyl]amino]-2-quinazolinepropanoic Acid] |  | > 5000 | 88
Cc1c(C)c(C)c(S(=O)(=O)N[C@@H](Cc2nc3ccc(CCCNc4ccccn4)cc3c(=O)[nH]2)C(=O)O)c(C)c1C [Compound 11, (αS)-3,4-dihydro-4-oxo-α-[[(2,3,4,5,6-pentamethylphenyl)sulfonyl]amino]-6-[3-(2-pyridinylamino)propyl]-2-quinazolinepropanoic Acid] |  | 9.6 | 640

More lines, now with the values ahead:

melting point [°C] | IC50 (Human αvβ3) [nM] | IC50 (GPIIb/IIIa) [nM] | Molecule
 | 79 | 4100 | Cc1cc(C)c(S(=O)(=O)N[C@@H](Cc2nc3ccc(/C=C/CNC(=O)NCc4ccccc4)cc3c(=O)[nH]2)C(=O)O)c(C)c1 [Compound 62, (αS)-3,4-dihydro-4-oxo-6-[(1E)-3-[[[(phenylmethyl)amino]carbonyl]amino]-1-propenyl]-α-[[(2,4,6-trimethylphenyl)sulfonyl]amino]-2-quinazolinepropanoic acid]
 | 8.8 | 820 | Cc1c(C)c(C)c(S(=O)(=O)N[C@@H](Cc2nc3ccc(/C=C/CNC(=O)NCc4ccccc4)cc3c(=O)[nH]2)C(=O)O)c(C)c1C [Compound 49, (αS)-3,4-dihydro-4-oxo-α-[[(2,3,4,5,6-pentamethylphenyl)sulfonyl]amino]-6-[(1E)-3-[[(benzylamino)carbonyl]amino]-1-propenyl]-2-quinazolinepropanoic acid]
 | 31 | 200 | Cc1c(C)c(C)c(S(=O)(=O)N[C@@H](Cc2nc3ccc(/C=C/CNC(N)=O)cc3c(=O)[nH]2)C(=O)O)c(C)c1C [Compound 53, 6-[(1E)-3-[(aminocarbonyl)amino]-1-propenyl]-(αS)-3,4-dihydro-4-oxo-α-[[(2,3,4,5,6-pentamethylphenyl)sulfonyl]amino]-2-quinazolinepropanoic acid]
 | 132 | 96 | Cc1c(C)c(C)c(S(=O)(=O)N[C@@H](Cc2nc3ccc(/C=C/CNC(=N)c4cccnc4)cc3c(=O)[nH]2)C(=O)O)c(C)c1C [Compound 47, (αS)-3,4-dihydro-6-[(1E)-3-[(imino-3-pyridinylmethyl)amino]-1-propenyl]-4-oxo-α-[[(2,3,4,5,6-pentamethylphenyl)sulfonyl]amino]-2-quinazolinepropanoic acid]
 | 11 | 64 | COc1ccc(S(=O)(=O)N[C@@H](Cc2nc3ccc(/C=C/CNC4=NCCN4)cc3c(=O)[nH]2)C(=O)O)cc1OC [Compound 48, 6-[(1E)-3-[(4,5-dihydro-1H-imidazol-2-yl)amino]-1-propenyl]-α-[[(3,4-dimethoxyphenyl)sulfonyl]amino]-(αS)-3,4-dihydro-4-oxo-2-quinazolinepropanoic acid]
 | 43 | 3700 | COc1ccc(S(=O)(=O)N[C@@H](Cc2nc3ccc(/C=C/CNC(=O)NCc4ccccc4)cc3c(=O)[nH]2)C(=O)O)cc1 [Compound 57, (αS)-3,4-dihydro-α-[[(4-methoxyphenyl)sulfonyl]amino]-4-oxo-6-[(1E)-3-[[[(phenylmethyl)amino]carbonyl]amino]-1-propenyl]-2-quinazolinepropanoic acid]
 | 420 | 580 | O=C(N[C@@H](Cc1nc2ccc(/C=C/CNC3=NCCC3)cc2c(=O)[nH]1)C(=O)O)OCc1ccccc1 [Compound 67, 6-[(1E)-3-[(3,4-dihydro-2H-pyrrol-5-yl)amino]-1-propenyl]-(αS)-3,4-dihydro-4-oxo-α-[[(phenylmethoxy)carbonyl]amino]-2-quinazolinepropanoic acid]
 | 5.8 | 740 | COc1ccc(S(=O)(=O)N[C@@H](Cc2nc3ccc(/C=C/CNc4cc(C)ccn4)cc3c(=O)[nH]2)C(=O)O)cc1OC [Compound 46, α-[[(3,4-dimethoxyphenyl)sulfonyl]amino]-(αS)-3,4-dihydro-6-[(1E)-3-[(4-methyl-2-pyridinyl)amino]-1-propenyl]-4-oxo-2-quinazolinepropanoic acid]
 | 15 | 1800 | Cc1ccnc(NC/C=C/c2ccc3nc(C[C@H](NS(=O)(=O)c4c(C)c(C)c(C)c(C)c4C)C(=O)O)[nH]c(=O)c3c2)c1 [Compound 45, (αS)-3,4-dihydro-6-[(1E)-3-[(4-methyl-2-pyridinyl)amino]-1-propenyl]-4-oxo-α-[[(2,3,4,5,6-pentamethylphenyl)sulfonyl]amino]-2-quinazolinepropanoic acid]
 | 32 | 3900 | COc1cc(C)c(S(=O)(=O)N[C@@H](Cc2nc3ccc(/C=C/CNC(=O)NCc4ccccc4)cc3c(=O)[nH]2)C(=O)O)c(C)c1C [Compound 56, (αS)-3,4-dihydro-α-[[(4-methoxy-2,3,6-trimethylphenyl)sulfonyl]amino]-4-oxo-6-[(1E)-3-[[[(phenylmethyl)amino]carbonyl]amino]-1-propenyl]-2-quinazolinepropanoic acid]
 | 69 | 12000 | Cc1c(C)c(C)c(S(=O)(=O)N[C@@H](Cc2nc3ccc(/C=C/CNc4nc5ccccc5c(=O)[nH]4)cc3c(=O)[nH]2)C(=O)O)c(C)c1C [Compound 61, 6-[(1E)-3-[(3,4-dihydro-4-oxo-2-quinazolinyl)amino]-1-propenyl]-(αS)-3,4-dihydro-4-oxo-α-[[(2,3,4,5,6-pentamethylphenyl)sulfonyl]amino]-2-quinazolinepropanoic acid]
 | 24 | 790 | COc1ccc(S(=O)(=O)N[C@@H](Cc2nc3ccc(/C=C/CNc4ccc(C)cn4)cc3c(=O)[nH]2)C(=O)O)cc1OC [Compound 44, α-[[(3,4-dimethoxyphenyl)sulfonyl]amino]-(αS)-3,4-dihydro-6-[(1E)-3-[(5-methyl-2-pyridinyl)amino]-1-propenyl]-4-oxo-2-quinazolinepropanoic acid]
